# Experimental data reported in patent US20200190470A1, “TEMOZOLOMIDE RESISTANT CELLS AND AN INTEGRATED METHOD FOR CHARACTERIZING THE SAME” (Council of Scientific & Industrial Research, priority 2018, published 2020).
# pIC50: −log10 of the molar value.
# How the values were obtained:
# [1] = test system: NSP cells (neurospheres derived from U87MG); assay: TMZ dose response, MTT cell viability assay, neurospheres (NSP); design: AUC (area under dose response curve): unit not given beside the values
# [2] = test system: differentiated cells (NDx) of NSP; assay: TMZ dose response of differentiated NSP cells (NDx); conditions: Homo sapiens
# Method: For dose-response experiments, four replicates at ˜20,000 cells per well were plated in 96-well Nunc™ tissue culture plates in full growth medium for 24 h, treated with different doses of TMZ in serial dilutions (0.05Me5M) followed by cell viability tests using the MTT assay. Appropriate cell controls (without TMZ treatment) were used to calculate IC50.
# U87MG cells = assay: TMZ dose response, MTT cell viability assay, U87MG; design: AUC (area under dose response curve): unit not given beside the values
smiles,measurement,setting,value
Cn1nnc2c(C(N)=O)ncn2c1=O [Temozolomide],pIC50,"[1]; Homo sapiens, U-87 MG",2.98
same,fold resistance ratio,[1]; NSP relative to U87MG,1.41
same,AUC (area under dose response curve),[1]; Neurospheres (NSP),276836
same,Emax,[1]; Neurospheres (NSP),49.29
same,Log2 (Hill Slope),[1]; Neurospheres (NSP),0
same,pIC50,[2],3.09
same,pIC50,"U87MG cells; Homo sapiens, U-87 MG",3.13
same,AUC (area under dose response curve),U87MG cells; U87MG,53039
same,Emax,U87MG cells; U87MG,25.53
same,Log2 (Hill Slope),U87MG cells; U87MG,−1.959
